Experimental data as given in patent publication US11000033B2, “Ketone or oxime compound, and herbicide” (NISSAN CHEMICAL CORPORATION, priority 2014, dated 2021).

How the values were obtained:
Type in all cases: in vivo
Scirpus juncoides [1] = assay: Test Example 1: herbicidal activity, application before weed generation in submerged conditions (symbol B); settings: application herbicide amount 320 g/ha
Method in brief: (§1)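 Scores run 0 to 5 by herbicidal ratio, with 5 meaning 90% or more and 0 meaning 5% or lower, read 3 weeks after treatment. Compound was applied as a diluted emulsion to the water surface of submerged alluvial-soil pots on the day weed seeds were sown.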

Monochoria vaginalis = assay: Test Example 1: herbicidal activity, application before weed generation in submerged conditions (symbol C); settings: application herbicide amount 320 g/ha
Method in brief: as §1

transplanted rice plant = assay: Test Example 1: effect on crop, application before weed generation in submerged conditions (symbol a); settings: application herbicide amount 320 g/ha
Method in brief: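 Alluvial soil pots flooded to 4 cm water, sown with Echinochloa oryzacola, Scirpus juncoides and Monochoria vaginalis, then transplanted with 2.5 leaf stage rice seedlings; pre-emergence application. Greenhouse 25° C. to 30° C.; scored 0–5 by herbicidal ratio 3 weeks after application.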

Scirpus juncoides [2] = assay: Test Example 2: herbicidal activity, application during weed generation in submerged conditions (symbol B); settings: Table 23; application herbicide amount 320 g/ha; grade 0-5 by criteria of Test Example 1
Method in brief: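 Steps: fill pots with alluvial soil; add water to 4 cm depth; co-sow the three weeds; grow at 25° C. to 30° C. under glass; at 1–2 leaves, dose the floodwater with diluted emulsion; rate damage visually after 3 weeks.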

Leptochloa chinensis = assay: Test Example 3: herbicidal effect by foliage application, Wagner pot (symbol D); settings: application herbicide amount 320 g/ha
Method in brief: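 Post-emergence, paddy-type test: seedlings 14 d old in shallow-flooded (0.1–0.5 cm) alluvial soil, 25–30 °C greenhouse. Emulsion diluted to target rate, sprayed on leaves. Read-out: visual effect on each species at 3 weeks, per set criteria.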

soybean = assay: Test Example 4: effect on crop by soil treatment (symbol d)
Method in brief: (§2)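 Greenhouse culture at 25° C. to 30° C. followed sowing of seed in spots on sterilized diluvial soil with a soil cover close to 1.5 cm thick.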

beet = assay: Test Example 4: effect on crop by soil treatment (symbol f)
Method in brief: as §2

[3] = system: Echinochloa crus-galli var. crus-galli; assay: Test Example 5: herbicidal effect by foliage application, plastic box (symbol H); settings: 320 g/ha, 3 weeks after application
Method in brief: (§3)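 Sowing in sterilized diluvial soil, 14 days' greenhouse growth at 25° C. to 30° C., then uniform small-sprayer foliar application of aqueous emulsion dilution; plants scored three weeks afterwards.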

Chenopodium album = assay: Test Example 5: herbicidal effect by foliage application, plastic box (symbol O); settings: 320 g/ha, 3 weeks after application
Method in brief: as §3

rapeseed = assay: Test Example 5: effect on crop by foliage application, plastic box (symbol g); settings: 320 g/ha, 3 weeks after application
Method in brief: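 Box culture: sterile diluvial soil, seeds spot-sown, ~1.5 cm cover, raised under glass at 25–30° C.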

[4] = application herbicide amount 320 g/ha

With `CON=C(CC1CC(O)=C(c2c(C)cc(Br)cc2C)C1=O)C(C)C` (centres unmarked) [9-001] the “Herbicidal effect grade, B: Scirpus juncoides” value (shortened to “Herbicidal effect grade, B”) (Scirpus juncoides [1]) was 0 (Herbicidal ratio of 5% or lower (almost no effect)), the “Herbicidal effect grade, C: Monochoria vaginalis” value (from here on “Herbicidal effect grade, C”) (Monochoria vaginalis) was 0 (Herbicidal ratio of 5% or lower (almost no effect)) and the “Effect grade on crop, a: transplanted rice plant” value (transplanted rice plant) was 4 (Herbicidal ratio of 70% or higher and lower than 90%). The “Herbicidal effect grade, B” value (Scirpus juncoides [2]) was 0 (Herbicidal ratio of 5% or lower (almost no effect)), the “D (Leptochloa chinensis) herbicidal effect grade” value (Leptochloa chinensis; Table 24) was 4 (Herbicidal ratio of 70% or higher and lower than 90%) and the “Effect on crop grade, d: soybean” value (soybean; [4]) was 0 (Herbicidal ratio of 5% or lower (almost no effect)). For the same molecule, the “Effect on crop grade, f: beet” value (beet; [4]) was 0 (Herbicidal ratio of 5% or lower (almost no effect)), the “H: Echinochloa crus-galli var. crus-galli, herbicidal effect grade” value [3] was 5 (Herbicidal ratio of 90% or more (almost completely withered)) and the “O: Chenopodium album, herbicidal effect grade” value (Chenopodium album) was 0 (Herbicidal ratio of 5% or lower (almost no effect)). The “g: rapeseed, effect on crop grade” value (rapeseed) was 2 (Herbicidal ratio of 20% or higher and lower than 40%).
`CC(CC1CC(O)=C(c2c(C)cc(C)cc2C)C1=O)=NOc1ccccc1` (centres unmarked) [1-057] was tested, and the “Herbicidal effect grade, B” value (Scirpus juncoides [1]) was 3 (Herbicidal ratio of 40% or higher and lower than 70%), the “Herbicidal effect grade, C” value (Monochoria vaginalis) was 2 (Herbicidal ratio of 20% or higher and lower than 40%) and the “Effect grade on crop, a: transplanted rice plant” value (transplanted rice plant) was 4 (Herbicidal ratio of 70% or higher and lower than 90%). The “Herbicidal effect grade, B” value (Scirpus juncoides [2]) was 0 (Herbicidal ratio of 5% or lower (almost no effect)), the “herbicidal effect on D (Leptochloa chinensis), grade 0-5” value (“herbicidal effect on D” below) (Leptochloa chinensis) was 3 (Herbicidal ratio of 40% or higher and lower than 70%) and the “d (soybean) effect on crop grade” value (soybean; [4]) was 0 (Herbicidal ratio of 5% or lower (almost no effect)). For the same molecule, the “f (beet) effect on crop grade” value (beet; [4]) was 0 (Herbicidal ratio of 5% or lower (almost no effect)), the “H: Echinochloa crus-galli var. crus-galli, herbicidal effect grade” value [3] was 4 (Herbicidal ratio of 70% or higher and lower than 90%) and the “O: Chenopodium album, herbicidal effect grade” value (Chenopodium album) was 0 (Herbicidal ratio of 5% or lower (almost no effect)). For the same molecule, the “g: rapeseed, effect on crop grade” value (rapeseed) was 4 (Herbicidal ratio of 70% or higher and lower than 90%).
With `CSCCON=C(C)CC1CC(O)=C(c2c(C)cc(C)cc2C)C1=O` (centres unmarked) [1-029] the “Herbicidal effect grade, B” value (Scirpus juncoides [1]) was 0 (Herbicidal ratio of 5% or lower (almost no effect)), the “Herbicidal effect grade, C” value (Monochoria vaginalis) was 0 (Herbicidal ratio of 5% or lower (almost no effect)) and the “Effect grade on crop, a: transplanted rice plant” value (transplanted rice plant) was 5 (Herbicidal ratio of 90% or more (almost completely withered)). The “Herbicidal effect grade, B” value (Scirpus juncoides [2]) was 0 (Herbicidal ratio of 5% or lower (almost no effect)), the “herbicidal effect on D” value (Leptochloa chinensis) was 5 (Herbicidal ratio of 90% or more (almost completely withered)) and the “d (soybean) effect on crop grade” value (soybean; [4]) was 0 (Herbicidal ratio of 5% or lower (almost no effect)). For the same molecule, the “f (beet) effect on crop grade” value (beet; [4]) was 0 (Herbicidal ratio of 5% or lower (almost no effect)), the “H: Echinochloa crus-galli var. crus-galli, herbicidal effect grade” value [3] was 5 (Herbicidal ratio of 90% or more (almost completely withered)) and the “O: Chenopodium album, herbicidal effect grade” value (Chenopodium album) was 3 (Herbicidal ratio of 40% or higher and lower than 70%). The “g: rapeseed, effect on crop grade” value (rapeseed) was 4 (Herbicidal ratio of 70% or higher and lower than 90%).
For `CON=C(C)CC1CC(OC(=O)C(C)(C)OC(C)=O)=C(c2c(C)cc(C)cc2C)C1=O` (centres unmarked) [1-034], the “Herbicidal effect grade, B” value (Scirpus juncoides [1]) was 4 (Herbicidal ratio of 70% or higher and lower than 90%), the “Herbicidal effect grade, C” value (Monochoria vaginalis) was 2 (Herbicidal ratio of 20% or higher and lower than 40%) and the “Effect grade on crop, a: transplanted rice plant” value (transplanted rice plant) was 5 (Herbicidal ratio of 90% or more (almost completely withered)). For the same molecule, the “Herbicidal effect grade, B” value (Scirpus juncoides [2]) was 3 (Herbicidal ratio of 40% or higher and lower than 70%), the “herbicidal effect on D” value (Leptochloa chinensis) was 5 (Herbicidal ratio of 90% or more (almost completely withered)) and the “d (soybean) effect on crop grade” value (soybean; [4]) was 0 (Herbicidal ratio of 5% or lower (almost no effect)). For the same molecule, the “f (beet) effect on crop grade” value (beet; [4]) was 4 (Herbicidal ratio of 70% or higher and lower than 90%), the “H: Echinochloa crus-galli var. crus-galli, herbicidal effect grade” value [3] was 5 (Herbicidal ratio of 90% or more (almost completely withered)) and the “O: Chenopodium album, herbicidal effect grade” value (Chenopodium album) was 5 (Herbicidal ratio of 90% or more (almost completely withered)). The “g: rapeseed, effect on crop grade” value (rapeseed) was 5 (Herbicidal ratio of 90% or more (almost completely withered)).
With `CON=C(C)CC1CC(OC(=O)COc2ccc(Br)cc2)=C(c2c(C)cc(C)cc2C)C1=O` (centres unmarked) [1-081] the “Herbicidal effect grade, B” value (Scirpus juncoides [1]) was 5 (Herbicidal ratio of 90% or more (almost completely withered)), the “Herbicidal effect grade, C” value (Monochoria vaginalis) was 2 (Herbicidal ratio of 20% or higher and lower than 40%) and the “Effect grade on crop, a: transplanted rice plant” value (transplanted rice plant) was 5 (Herbicidal ratio of 90% or more (almost completely withered)). The “Herbicidal effect grade, B” value (Scirpus juncoides [2]) was 4 (Herbicidal ratio of 70% or higher and lower than 90%), the “herbicidal effect on D” value (Leptochloa chinensis) was 5 (Herbicidal ratio of 90% or more (almost completely withered)) and the “d: soybean, effect grade on crop” value (soybean; 320 g/ha) was 1 (Herbicidal ratio of 5% or higher and lower than 20%). For the same molecule, the “f: beet, effect grade on crop” value (beet; 320 g/ha) was 0 (Herbicidal ratio of 5% or lower (almost no effect)), the “H: Echinochloa crus-galli var. crus-galli, herbicidal effect (criteria 0-5)” value [3] was 5 (Herbicidal ratio of 90% or more (almost completely withered)) and the “O: Chenopodium album, herbicidal effect (criteria 0-5)” value (Chenopodium album) was 3 (Herbicidal ratio of 40% or higher and lower than 70%). For the same molecule, the “g: rapeseed, effect on crop (criteria 0-5)” value (rapeseed) was 5 (Herbicidal ratio of 90% or more (almost completely withered)).
In the case of `CC(CC1CC(O)=C(c2c(C)cc(C)cc2C)C1=O)=NOCC(F)(F)F` (centres unmarked) [1-028], the “Herbicidal effect grade, B” value (Scirpus juncoides [1]) is reported as 5 (Herbicidal ratio of 90% or more (almost completely withered)), the “Herbicidal effect grade, C” value (Monochoria vaginalis) is reported as 1 (Herbicidal ratio of 5% or higher and lower than 20%) and the “Effect grade on crop, a: transplanted rice plant” value (transplanted rice plant) is reported as 5 (Herbicidal ratio of 90% or more (almost completely withered)). For the same molecule, the “Herbicidal effect grade, B” value (Scirpus juncoides [2]) was 4 (Herbicidal ratio of 70% or higher and lower than 90%), the “herbicidal effect on D” value (Leptochloa chinensis) was 5 (Herbicidal ratio of 90% or more (almost completely withered)) and the “d (soybean) effect on crop grade” value (soybean; [4]) was 0 (Herbicidal ratio of 5% or lower (almost no effect)). For the same molecule, the “f (beet) effect on crop grade” value (beet; [4]) was 0 (Herbicidal ratio of 5% or lower (almost no effect)), the “H: Echinochloa crus-galli var. crus-galli, herbicidal effect grade” value [3] was 5 (Herbicidal ratio of 90% or more (almost completely withered)) and the “O: Chenopodium album, herbicidal effect grade” value (Chenopodium album) was 3 (Herbicidal ratio of 40% or higher and lower than 70%). For the same molecule, the “g: rapeseed, effect on crop grade” value (rapeseed) was 4 (Herbicidal ratio of 70% or higher and lower than 90%).
`CON=C(C)C(c1ccc(F)cc1)C1CC(O)=C(c2c(C)cc(C)cc2C)C1=O` (centres unmarked) [1-049] was tested, and the “Herbicidal effect grade, B” value (Scirpus juncoides [1]) was 0 (Herbicidal ratio of 5% or lower (almost no effect)), the “Herbicidal effect grade, C” value (Monochoria vaginalis) was 0 (Herbicidal ratio of 5% or lower (almost no effect)) and the “Effect grade on crop, a: transplanted rice plant” value (transplanted rice plant) was 0 (Herbicidal ratio of 5% or lower (almost no effect)). For the same molecule, the “Herbicidal effect grade, B” value (Scirpus juncoides [2]) was 0 (Herbicidal ratio of 5% or lower (almost no effect)), the “herbicidal effect on D” value (Leptochloa chinensis) was 0 (Herbicidal ratio of 5% or lower (almost no effect)) and the “d (soybean) effect on crop grade” value (soybean; [4]) was 0 (Herbicidal ratio of 5% or lower (almost no effect)). For the same molecule, the “f (beet) effect on crop grade” value (beet; [4]) was 0 (Herbicidal ratio of 5% or lower (almost no effect)), the “H: Echinochloa crus-galli var. crus-galli, herbicidal effect grade” value [3] was 0 (Herbicidal ratio of 5% or lower (almost no effect)) and the “O: Chenopodium album, herbicidal effect grade” value (Chenopodium album) was 0 (Herbicidal ratio of 5% or lower (almost no effect)). The “g: rapeseed, effect on crop grade” value (rapeseed) was 0 (Herbicidal ratio of 5% or lower (almost no effect)).
For `CON=C(C)CC1CC(OC(=O)COc2cccc(OC)c2)=C(c2c(C)cc(C)cc2C)C1=O` (centres unmarked) [1-068], the “Herbicidal effect grade, B” value (Scirpus juncoides [1]) was 4 (Herbicidal ratio of 70% or higher and lower than 90%), the “Herbicidal effect grade, C” value (Monochoria vaginalis) was 3 (Herbicidal ratio of 40% or higher and lower than 70%) and the “Effect grade on crop, a: transplanted rice plant” value (transplanted rice plant) was 5 (Herbicidal ratio of 90% or more (almost completely withered)). The “Herbicidal effect grade, B” value (Scirpus juncoides [2]) was 5 (Herbicidal ratio of 90% or more (almost completely withered)), the “herbicidal effect on D” value (Leptochloa chinensis) was 5 (Herbicidal ratio of 90% or more (almost completely withered)) and the “d (soybean) effect on crop grade” value (soybean; [4]) was 0 (Herbicidal ratio of 5% or lower (almost no effect)). The “f (beet) effect on crop grade” value (beet; [4]) was 0 (Herbicidal ratio of 5% or lower (almost no effect)), the “H: Echinochloa crus-galli var. crus-galli, herbicidal effect grade” value [3] was 5 (Herbicidal ratio of 90% or more (almost completely withered)) and the “O: Chenopodium album, herbicidal effect grade” value (Chenopodium album) was 1 (Herbicidal ratio of 5% or higher and lower than 20%). The “g: rapeseed, effect on crop grade” value (rapeseed) was 4 (Herbicidal ratio of 70% or higher and lower than 90%).
